The values below are quoted from earlier work in patent publication US20100221356A1, “PHARMACEUTICAL COMPOSITION FOR ONCE A DAY ADMINISTRATION OF TROSPIUM CHLORIDE” (SUPERNUS PHARMACEUTICALS, INC., priority 2003, published 2010).

The conditions of series [1]: 40 mg immediate release dose once daily compared to 20 mg given twice daily.
For series [2] the following is noted: water.

Turning to `O=C(O[C@H]1C[C@H]2CC[C@@H](C1)[N+]21CCCC1)C(O)(c1ccccc1)c1ccccc1` [Trospium chloride], in series [1], the “overall incidence of adverse events” value is “higher overall incidence of adverse events”. The saturation solubility in series [2] was 500 mg/mL. Moreover, for the setting “oral”, the oral bioavailability entry was “approximately 10%”. The “oral bioavailability with the intake of high-fat food” value (oral, high-fat food) is listed as “significantly reduced”. Where the note is “orally administered”, the “time to maximum blood level” value is 5 to 6 h.
